Results published in ChEMBL document CHEMBL3885881, “DrugMatrix”.

Species: Rattus norvegicus
Experiment: DrugMatrix - Regimen: Daily Repeat
Type: toxicity, organism-based, Sprague-Dawley
Parameters: regimen Daily Repeat, gender Male, age 6-8 weeks
Details: in vivo, po, route oral GAVAGE, vehicle .5 % CMC; for ABSOLUTE BASOPHIL / ABSOLUTE EOSINOPHIL / ABSOLUTE LYMPHOCYTE / ABSOLUTE MONOCYTE / ABSOLUTE SEGMENTED NEUTROPHIL / BASOPHIL / EOSINOPHIL / ERYTHROCYTE COUNT / HEMATOCRIT / HEMOGLOBIN / LEUKOCYTE COUNT / LYMPHOCYTE / MEAN CORPUSCULAR HEMOGLOBIN / MEAN CORPUSCULAR HEMOGLOBIN CONCENTRATION / MEAN CORPUSCULAR VOLUME / MONOCYTE / NEUTROPHIL / NUCLEATED RED BLOOD CELLS / PLATELET COUNT: tissue Blood; for ALANINE AMINOTRANSFERASE / ALBUMIN / ALKALINE PHOSPHATASE / ASPARTATE AMINOTRANSFERASE / BLOOD UREA NITROGEN / CARBON DIOXIDE / CHLORIDE / CHOLESTEROL / CREATINE PHOSPHOKINASE / CREATININE / GLUCOSE / LACTATE DEHYDROGENASE / LIPASE / PHOSPHORUS / POTASSIUM / SODIUM / TOTAL BILIRUBIN / TOTAL PROTEIN / URIC ACID: tissue Plasma
[1] = 170 mg/kg, 72 h, dose level Low, time 3 day
[2] = 170 mg/kg, 120 h, dose level Low, time 5 day
[3] = 1700 mg/kg, 72 h, dose level High, time 3 day
[4] = 1700 mg/kg, 120 h, dose level High, time 5 day

## O=C(O)c1ccccc1 [BENZOIC ACID]
[1]
  ABSOLUTE BASOPHIL: 0 CELLS/uL
  ABSOLUTE EOSINOPHIL: 0 CELLS/uL
  ABSOLUTE LYMPHOCYTE: 11616 CELLS/uL
  ABSOLUTE MONOCYTE: 0 CELLS/uL
  ABSOLUTE SEGMENTED NEUTROPHIL: 1417.33 CELLS/uL
  BASOPHIL: 0%
  EOSINOPHIL: 0%
  ERYTHROCYTE COUNT: 5.44 x10E6/uL
  HEMATOCRIT: 34.03%
  HEMOGLOBIN: 13.07 G/DL
  LEUKOCYTE COUNT: 13.03 x10E3/uL
  LYMPHOCYTE: 89.33%
  MEAN CORPUSCULAR HEMOGLOBIN: 24.03 pg
  MEAN CORPUSCULAR HEMOGLOBIN CONCENTRATION: 38.4 G/DL
  MEAN CORPUSCULAR VOLUME: 62.6 fL
  MONOCYTE: 0%
  NEUTROPHIL: 10.67%
  NUCLEATED RED BLOOD CELLS: 0 /100WBC
  PLATELET COUNT: 1319.33 x10E3/uL
  ALANINE AMINOTRANSFERASE: 59.67 u/L
  ALBUMIN: 4.13 G/DL
  ALKALINE PHOSPHATASE: 380 u/L
  ASPARTATE AMINOTRANSFERASE: 88 u/L
  BLOOD UREA NITROGEN: 17 mg/dL
  CARBON DIOXIDE: 29.33 mmol/L
  CHLORIDE: 100.67 MEQ/L
  CHOLESTEROL: 99 mg/dL
  CREATINE PHOSPHOKINASE: 286 u/L
  CREATININE: 0.23 mg/dL
  GLUCOSE: 150 mg/dL
  LACTATE DEHYDROGENASE: 280 u/L
  LIPASE: 10 u/L
  PHOSPHORUS: 13.27 mg/dL
  POTASSIUM: 6.52 MEQ/L
  SODIUM: 146.37 MEQ/L
  TOTAL BILIRUBIN: 0.17 mg/dL
  TOTAL PROTEIN: 5.97 G/DL
  URIC ACID: 1.6 mg/dL
[2]
  ABSOLUTE BASOPHIL: 0 CELLS/uL
  ABSOLUTE EOSINOPHIL: 64 CELLS/uL
  ABSOLUTE LYMPHOCYTE: 17040 CELLS/uL
  ABSOLUTE MONOCYTE: 0 CELLS/uL
  ABSOLUTE SEGMENTED NEUTROPHIL: 1696 CELLS/uL
  BASOPHIL: 0%
  EOSINOPHIL: 0.33%
  ERYTHROCYTE COUNT: 5.48 x10E6/uL
  HEMATOCRIT: 35.33%
  HEMOGLOBIN: 13.8 G/DL
  LEUKOCYTE COUNT: 18.8 x10E3/uL
  LYMPHOCYTE: 90.67%
  MEAN CORPUSCULAR HEMOGLOBIN: 25.23 pg
  MEAN CORPUSCULAR HEMOGLOBIN CONCENTRATION: 39.07 G/DL
  MEAN CORPUSCULAR VOLUME: 64.5 fL
  MONOCYTE: 0%
  NEUTROPHIL: 9%
  NUCLEATED RED BLOOD CELLS: 0 /100WBC
  PLATELET COUNT: 1165 x10E3/uL
  ALANINE AMINOTRANSFERASE: 57.33 u/L
  ALBUMIN: 4.23 G/DL
  ALKALINE PHOSPHATASE: 352 u/L
  ASPARTATE AMINOTRANSFERASE: 96.67 u/L
  BLOOD UREA NITROGEN: 15.67 mg/dL
  CARBON DIOXIDE: 24 mmol/L
  CHLORIDE: 103.67 MEQ/L
  CHOLESTEROL: 79 mg/dL
  CREATINE PHOSPHOKINASE: 445 u/L
  CREATININE: 0.21 mg/dL
  GLUCOSE: 164.67 mg/dL
  LACTATE DEHYDROGENASE: 554.67 u/L
  LIPASE: 9.67 u/L
  PHOSPHORUS: 12.87 mg/dL
  POTASSIUM: 6.28 MEQ/L
  SODIUM: 144.9 MEQ/L
  TOTAL BILIRUBIN: 0.23 mg/dL
  TOTAL PROTEIN: 6.17 G/DL
  URIC ACID: 2.2 mg/dL
[3]
  ABSOLUTE BASOPHIL: 0 CELLS/uL
  ABSOLUTE EOSINOPHIL: 95.33 CELLS/uL
  ABSOLUTE LYMPHOCYTE: 13599.67 CELLS/uL
  ABSOLUTE MONOCYTE: 51.33 CELLS/uL
  ABSOLUTE SEGMENTED NEUTROPHIL: 1753.67 CELLS/uL
  BASOPHIL: 0%
  EOSINOPHIL: 0.67%
  ERYTHROCYTE COUNT: 6 x10E6/uL
  HEMATOCRIT: 35.93%
  HEMOGLOBIN: 14.17 G/DL
  LEUKOCYTE COUNT: 15.5 x10E3/uL
  LYMPHOCYTE: 87.67%
  MEAN CORPUSCULAR HEMOGLOBIN: 23.6 pg
  MEAN CORPUSCULAR HEMOGLOBIN CONCENTRATION: 39.43 G/DL
  MEAN CORPUSCULAR VOLUME: 59.9 fL
  MONOCYTE: 0.33%
  NEUTROPHIL: 11.33%
  NUCLEATED RED BLOOD CELLS: 0 /100WBC
  PLATELET COUNT: 1304 x10E3/uL
  ALANINE AMINOTRANSFERASE: 84.67 u/L
  ALBUMIN: 4.3 G/DL
  ALKALINE PHOSPHATASE: 341.67 u/L
  ASPARTATE AMINOTRANSFERASE: 125.33 u/L
  BLOOD UREA NITROGEN: 16 mg/dL
  CARBON DIOXIDE: 30.67 mmol/L
  CHLORIDE: 97.33 MEQ/L
  CHOLESTEROL: 63.67 mg/dL
  CREATINE PHOSPHOKINASE: 240.33 u/L
  CREATININE: 0.2 mg/dL
  GLUCOSE: 149 mg/dL
  LACTATE DEHYDROGENASE: 314.33 u/L
  LIPASE: 9.33 u/L
  PHOSPHORUS: 13.87 mg/dL
  POTASSIUM: 6.31 MEQ/L
  SODIUM: 144.83 MEQ/L
  TOTAL BILIRUBIN: 0.23 mg/dL
  TOTAL PROTEIN: 5.73 G/DL
  URIC ACID: 1.6 mg/dL
[4]
  ABSOLUTE BASOPHIL: 0 CELLS/uL
  ABSOLUTE EOSINOPHIL: 54.33 CELLS/uL
  ABSOLUTE LYMPHOCYTE: 15272.67 CELLS/uL
  ABSOLUTE MONOCYTE: 230 CELLS/uL
  ABSOLUTE SEGMENTED NEUTROPHIL: 2109.67 CELLS/uL
  BASOPHIL: 0%
  EOSINOPHIL: 0.33%
  ERYTHROCYTE COUNT: 5.71 x10E6/uL
  HEMATOCRIT: 34.87%
  HEMOGLOBIN: 14.07 G/DL
  LEUKOCYTE COUNT: 17.67 x10E3/uL
  LYMPHOCYTE: 86.33%
  MEAN CORPUSCULAR HEMOGLOBIN: 24.67 pg
  MEAN CORPUSCULAR HEMOGLOBIN CONCENTRATION: 40.33 G/DL
  MEAN CORPUSCULAR VOLUME: 61.07 fL
  MONOCYTE: 1.33%
  NEUTROPHIL: 12%
  NUCLEATED RED BLOOD CELLS: 0 /100WBC
  PLATELET COUNT: 1192 x10E3/uL
  ALANINE AMINOTRANSFERASE: 71 u/L
  ALBUMIN: 4.37 G/DL
  ALKALINE PHOSPHATASE: 303 u/L
  ASPARTATE AMINOTRANSFERASE: 113.33 u/L
  BLOOD UREA NITROGEN: 18.67 mg/dL
  CARBON DIOXIDE: 27.67 mmol/L
  CHLORIDE: 103.33 MEQ/L
  CHOLESTEROL: 67.33 mg/dL
  CREATINE PHOSPHOKINASE: 298.67 u/L
  CREATININE: 0.19 mg/dL
  GLUCOSE: 164.33 mg/dL
  LACTATE DEHYDROGENASE: 269.33 u/L
  LIPASE: 10 u/L
  PHOSPHORUS: 14 mg/dL
  POTASSIUM: 6.25 MEQ/L
  SODIUM: 149.6 MEQ/L
  TOTAL BILIRUBIN: 0.2 mg/dL
  TOTAL PROTEIN: 5.8 G/DL
  URIC ACID: 1.67 mg/dL
